Like-named read-outs stand apart in the source and are kept apart here.
Key:
Type in all cases: biochemical, human
[1] = tested on: EGFR (L858R) (h)
Procedure: (§1) Assay conditions included 10 μM ATP and 100 nM test compounds.
(§2) All reactions are initiated by the addition of the MgATP mix. After incubation for 40 minutes at room temperature, the reaction is stopped by the addition of 3% phosphoric acid solution. 10 μL of the reaction is then spotted onto a P30 filtermat and washed three times for 5 minutes in 75 mM phosphoric acid and once in methanol prior to drying and scintillation counting. […] The experiment is carried out in duplicate. The value for the control sample (DMSO) was set to 100%, and the values for the compound-treated samples were expressed as activity relative to the control sample.
(§3) (specific activity approx. 500 cpm/pmol, concentration as required) and 0.1 μM test compound.

[2] = tested on: EGFR (T790M) (h)
Procedure: as §1
(§4) All reactions are initiated by the addition of the MgATP mix. After incubation for 40 minutes at room temperature, the reaction is stopped by the addition of 3% phosphoric acid solution. 10 μL of the reaction is then spotted onto a P30 filtermat and washed three times for 5 minutes in 75 mM phosphoric acid and once in methanol prior to drying and scintillation counting. This assay is performed by Millipore. The experiment is carried out in duplicate. The value for the control sample (DMSO) was set to 100%, and the values for the compound-treated samples were expressed as activity relative to the control sample.

[3] = tested on: EGFR (T790M, L858R) (h)
Procedure: as §1, §2, §3

[4] = tested on: EGFR (h)
Procedure: as §1, §2, §3

[5] = tested on: ALK (h)
Procedure: as §1, §4

[6] = 0.1 μM test compound, 10 μM ATP, remaining activity relative to DMSO control = 100%

Compound	Activity (control) % EGFR (L858R) (h) [1]	Activity (control) % EGFR (T790M) (h) [2]	Activity (control) % EGFR (T790M, L858R) (h) [3]	Activity (control) % EGFR (h) [4]	Activity (control) % ALK (h) [5, 6]	Activity (control) % EGFR (T790M) (h) [2, 6]	Activity (control) % EGFR (T790M, L858R) (h) [3, 6]	Activity (control) % EGFR (L858R) (h) [1, 6]	Activity (control) % ALK (h) [5]	Activity (control) % EGFR (h) [4, 6]
C=CC(=O)Nc1cccc(Nc2nc(Nc3ccc(N4CCN(C(C)=O)CC4)cc3OC)ncc2C(F)(F)F)c1 [CO-1686, reference compound]	97%	21%	7%	92%	–	–	–	–	–	–
COc1cc(N2CCC(N(C)C)CC2)ccc1Nc1ncc(Cl)c(Nc2ccccc2C(=O)C(N)=O)n1 [Example 4, 2-(2-(5-chloro-2-(4-(4-(dimethylamino)piperidin-1-yl)-2-methoxyphenylamino)pyrimidin-4-ylamino)phenyl)-2-oxoacetamide]	8%	4%	2%	65%	8%	–	–	–	–	–
C=CC(=O)Nc1cccc(Nc2ncc(Cl)c(Nc3ccccc3C(=O)C(=O)N(C)C)n2)c1 [Example 40, N-(3-(5-chloro-4-(2-(2-(dimethylamino)-2-oxoacetyl)phenylamino)pyrimidin-2-ylamino)phenyl)acrylamide]	–	–	–	–	28%	79%	24%	–	–	–
COc1cc(N2CCN(C(C)=O)CC2)ccc1Nc1ncc(Cl)c(Nc2ccccc2C(=O)C(=O)N(C)C)n1 [Example 53, 2-(2-(2-(4-(4-acetylpiperazin-1-yl)-2-methoxyphenylamino)-5-chloropyrimidin-4-ylamino)phenyl)-N,N-dimethyl-2-oxoacetamide]	–	–	–	–	–	21%	4%	60%	–	–
COc1cc(Nc2ncc(Cl)c(Nc3ccccc3C(=O)C(=O)N(C)C)n2)ccc1N1CCN(C)CC1 [Example 61, 2-(2-(5-chloro-2-(3-methoxy-4-(4-methylpiperazin-1-yl)phenylamino)pyrimidin-4-ylamino)phenyl)-N,N-dimethyl-2-oxoacetamide]	70%	54%	13%	–	–	–	–	–	5%	–
C=CC(=O)Nc1cc(Nc2ncc(Cl)c(Nc3ccccc3C(=O)C(=O)NC)n2)ccc1OC [Example 64, N-(5-(5-chloro-4-(2-(2-(methylamino)-2-oxoacetyl)phenylamino)pyrimidin-2-ylamino)-2-methoxyphenyl)acrylamide]	–	–	–	–	47%	79%	39%	100%	–	–
COc1ccc(NC(=O)/C=C/CN2CCCCC2)cc1Nc1ncc(Cl)c(Nc2ccccc2C(=O)C(=O)N(C)C)n1 [Example 72, (E)-N-(3-(5-chloro-4-(2-(2-(dimethylamino)-2-oxoacetyl)phenylamino)pyrimidin-2-ylamino)-4-methoxyphenyl)-4-(piperidin-1-yl)but-2-enamide]	–	–	–	–	14%	54%	9%	28%	–	–
C=C(CN1CCCCC1)C(=O)Nc1ccc(OC)c(Nc2ncc(Cl)c(Nc3ccccc3C(=O)C(=O)N(C)C)n2)c1 [Example 73, N-(3-(5-chloro-4-(2-(2-(dimethylamino)-2-oxoacetyl)phenylamino)pyrimidin-2-ylamino)-4-methoxyphenyl)-2-(piperidin-1-ylmethyl)acrylamide]	–	–	–	–	17%	3%	3%	37%	–	67%
C=C(CN(C)C)C(=O)Nc1ccc(OC)c(Nc2ncc(Cl)c(Nc3ccccc3C(=O)C(=O)N(C)C)n2)c1 [Example 78, N-(3-(5-chloro-4-(2-(2-(dimethylamino)-2-oxoacetyl)phenylamino)pyrimidin-2-ylamino)-4-methoxyphenyl)-2-((dimethylamino)methyl)acrylamide]	–	–	–	–	36%	2%	3%	37%	–	68%
COc1ccc(NC(=O)/C=C/CN(C)C)cc1Nc1ncc(Cl)c(Nc2ccccc2C(=O)C(=O)N(C)C)n1 [Example 80, (E)-N-(3-(5-chloro-4-(2-(2-(dimethylamino)-2-oxoacetyl)phenylamino)pyrimidin-2-ylamino)-4-methoxyphenyl)-4-(dimethylamino)but-2-enamide]	–	–	–	–	10%	42%	7%	43%	–	–
C=CC(=O)N1CCOc2ccc(Nc3ncc(Cl)c(Nc4ccccc4C(=O)C(=O)N(C)C)n3)cc21 [Example 87, 2-(2-(2-(4-acryloyl-3,4-dihydro-2H-benzo[b][1,4]oxazin-6-ylamino)-5-chloropyrimidin-4-ylamino)phenyl)-N,N-dimethyl-2-oxoacetamide]	–	–	–	–	–	–	–	–	5%	–
C=CC(=O)Nc1cc(Nc2ncc(Cl)c(Nc3ccccc3C(=O)C(=O)N(C)C)n2)ccc1N1CCN(C)CC1 [Example 111, N-(5-(5-chloro-4-(2-(2-(dimethylamino)-2-oxoacetyl)phenylamino)pyrimidin-2-ylamino)-2-(4-methylpiperazin-1-yl)phenyl)acrylamide]	–	–	–	–	8%	59%	11%	76%	–	–
C=CC(=O)Nc1cc(Nc2ncc(Cl)c(Nc3ccccc3C(=O)C(=O)N(C)C)n2)ccc1OCCN(C)C [Example 115, N-(5-(5-chloro-4-(2-(2-(dimethylamino)-2-oxoacetyl)phenylamino)pyrimidin-2-ylamino)-2-(2-(dimethylamino)ethoxy)phenyl)acrylamide]	–	–	–	–	6%	–	–	–	–	–
COc1cc(Nc2ncc(Cl)c(Nc3ccccc3C(=O)C(=O)N(C)C)n2)ccc1N1CCOCC1 [Example 117, 2-(2-(5-chloro-2-(3-methoxy-4-morpholinophenylamino)pyrimidin-4-ylamino)phenyl)-N,N-dimethyl-2-oxoacetamide]	–	–	–	–	8%	65%	14%	88%	–	–
CCC(=O)Nc1cc(Nc2ncc(Cl)c(Nc3ccccc3C(=O)C(=O)N(C)C)n2)ccc1OCCN(C)C [Example 120, N-(5-(5-chloro-4-(2-(2-(dimethylamino)-2-oxoacetyl)phenylamino)pyrimidin-2-ylamino)-2-(2-(dimethylamino)ethoxy)phenyl)propionamide]	–	–	–	–	8%	62%	14%	76%	–	–
CN(C)C(=O)C(=O)c1ccccc1Nc1nc(Nc2ccc(F)c(NC(=O)CCN3CCOCC3)c2)ncc1Cl [Example 123, N-(5-(5-chloro-4-(2-(2-(dimethylamino)-2-oxoacetyl)phenylamino)pyrimidin-2-ylamino)-2-fluorophenyl)-3-morpholinopropanamide]	–	–	–	–	17%	84%	31%	94%	–	–
C=C(CN(C)CCN(C)C)C(=O)Nc1cccc(Nc2ncc(Cl)c(Nc3ccccc3C(=O)C(=O)N(C)C)n2)c1 [Example 125, N-(3-(5-chloro-4-(2-(2-(dimethylamino)-2-oxoacetyl)phenylamino)pyrimidin-2-ylamino)phenyl)-2-(((2-(dimethylamino)ethyl)(methyl)amino)methyl)acrylamide]	–	–	–	–	20%	18%	2%	54%	–	–
C=C(CN1CCCCC1)C(=O)Nc1cc(Nc2ncc(Cl)c(Nc3ccccc3C(=O)C(=O)N(C)C)n2)ccc1N1CCOCC1 [Example 129, N-(5-(5-chloro-4-(2-(2-(dimethylamino)-2-oxoacetyl)phenylamino)pyrimidin-2-ylamino)-2-morpholinophenyl)-2-(piperidin-1-ylmethyl)acrylamide]	–	–	–	–	8%	24%	3%	75%	–	–
CCN(CC)C(=O)C(=O)c1ccccc1Nc1nc(Nc2ccc(N3CCN(C)CC3)c(OC)c2)ncc1Cl [Example 130, 2-(2-(5-chloro-2-(3-methoxy-4-(4-methylpiperazin-1-yl)phenylamino)pyrimidin-4-ylamino)phenyl)-N,N-diethyl-2-oxoacetamide]	–	–	–	–	13%	84%	22%	98%	–	–
C=CC(=O)Nc1ccc(OC)c(Nc2ncc(Cl)c(Nc3ccccc3C(=O)C(=O)N(CC)CC)n2)c1 [Example 131, N-(3-(5-chloro-4-(2-(2-(diethylamino)-2-oxoacetyl)phenylamino)pyrimidin-2-ylamino)-4-methoxyphenyl)acrylamide]	–	–	–	–	9%	82%	27%	–	–	–
C=CC(=O)Nc1cc(Nc2ncc(Cl)c(Nc3ccccc3C(=O)C(=O)N(CC)CC)n2)ccc1OC [Example 132, N-(5-(5-chloro-4-(2-(2-(diethylamino)-2-oxoacetyl)phenylamino)pyrimidin-2-ylamino)-2-methoxyphenyl)acrylamide]	–	–	–	–	16%	77%	30%	–	–	–
C=CC(=O)Nc1ccc(N2CCN(C)CC2)c(Nc2ncc(Cl)c(Nc3ccccc3C(=O)C(=O)N(C)C)n2)c1 [Example 135, N-(3-(5-chloro-4-(2-(2-(dimethylamino)-2-oxoacetyl)phenylamino)pyrimidin-2-ylamino)-4-(4-methylpiperazin-1-yl)phenyl)acrylamide]	–	–	–	–	80%	96%	95%	–	–	–

From patent publication US9783524B2, “Protein tyrosine kinase modulators and methods of use” (BETTA PHARMACEUTICALS CO., LTD., priority 2013, dated 2017)
